Like-named read-outs stand apart in the source and are kept apart here.
Experiments:
ZIKV GFP RVPs [1] = system: ZIKV GFP RVPs
[2] = Table 1, anti-ZIKV assay
[3] = 1H NMR titration with octyloxy pyranoside β-Man; type: binding; conditions: NMR titrations in CD2Cl2 at 298 K, 1:1 binding
[4] = 1H NMR titration with octyloxy pyranoside α-Man; type: binding; conditions: NMR titrations in CD2Cl2 at 298 K, 1:1 binding
[5] = 1H NMR titration with octyloxy pyranoside α-Glc; type: binding; conditions: CD2Cl2, 298 K, 1:1 binding
[6] = NMR dilution experiments for dimerization; type: physicochemical; conditions: dilution experiments in CD2Cl2
ZIKV GFP RVPs [7] = experiment: microbe, parasite or virus in culture; conditions: Zika virus, Vero, Vero cells
[8] = Cellular toxicity, CellTiter-Glo, Vero cells; conditions: African green monkey
N154Q mutant ZIKV RVPs = type: cell-based, Zika virus; conditions: Vero cells

| Structure (SMILES) | anti-ZIKV activity in words (ZIKV GFP RVPs [1]) | solubility (words printed in the IC50 column) [2] | Ka (M^−1) with β-Man [3] [M⁻¹] | Ka (M^−1) with α-Man [4] [M⁻¹] | Ka with α-Glc [5] [M⁻¹] | dimerization in words [6] | IC50 relative to regioisomer (ZIKV GFP RVPs [1]; SCR023 vs SCR022, SCR017 vs SCR001) | therapeutic index (TC50/IC50) (ZIKV GFP RVPs [1]; Table 3, Vero cells) | IC50 (ZIKV GFP RVPs [1]; Table 3, Vero cells, ZIKV RVPs, average of at least two independent measurements) [µM] | anti-ZIKV activity in words (ZIKV GFP RVPs [1]; Vero cells, ZIKV RVPs) | IC50 (ZIKV GFP RVPs [7]; Table 3, ZIKV RVPs, average of at least two independent measurements) [µM] | CC50 at 72 h [8] [µM] | inhibition of N154Q mutant RVPs in words (N154Q mutant ZIKV RVPs) | IC50 (ZIKV GFP RVPs [7]; Table 1, compounds 30 min before ZIKV RVPs, GFP+ cells 72 h postinfection) [µM] |
| --- | --- | --- | --- | --- | --- | --- | --- | --- | --- | --- | --- | --- | --- | --- |
| O=C(NCc1cc(CNC(=O)c2ccco2)cc(-c2cc(CNC(=O)c3ccco3)cc(CNC(=O)c3ccco3)c2)c1)c1ccco1 [SCR007, N,N′,N′″-([1,1′-biphenyl]-3,3′,5,5′-tetrayltetrakis(methylene))tetrakis(furan-2-carboxamide)] | not effective | not soluble |  |  |  |  |  |  |  |  |  |  |  |  |
| Oc1cccc(CNCc2cc(CNCc3cccc(O)c3)cc(-c3cc(CNCc4cccc(O)c4)cc(CNCc4cccc(O)c4)c3)c2)c1 [SCR023, 3,3′,3″,3′″-((([1,1′-biphenyl]-3,3′,5,5′-tetrayltetrakis(methylene))tetrakis(azanediyl))tetrakis(methylene))tetraphenol] |  |  | 250 | 150 | 310 | Dimerization was observed | at least four times higher | 20 | 10.6 ± 5.9 | weaker inhibition | < 20 | 207 ± 79 |  |  |
| Cc1ccc(C(=O)Nc2ccc(S(=O)(=O)O)c3cc(S(=O)(=O)O)cc(S(=O)(=O)O)c23)cc1NC(=O)c1cccc(NC(=O)Nc2cccc(C(=O)Nc3cc(C(=O)Nc4ccc(S(=O)(=O)O)c5cc(S(=O)(=O)O)cc(S(=O)(=O)O)c45)ccc3C)c2)c1 [Suramin, reference compound] |  |  |  |  |  |  |  |  |  | dose dependent inhibition of ZIKV infection |  | > 200 | inhibited | 44 ± 4.19 |
